# Measured values published in patent EP4537835A1, “MIXTURE, COMPOSITIONS CONTAINING THAT MIXTURE AND USE THEREOF IN THE TREATMENT OF FEMAL INFERTILITY” (Nutra Futura S.r.l., priority 2023, dated 2025).
# Tested on: CaCo-2 cells
# Experiment: Dose-response study of cell viability (MTT assay) on CaCo-2 cells
# Type: cell-based, human
# Details: p<0.05 compared to the other tested doses
# Experimental: The human intestinal epithelial cell line CaCo-2, purchased from the American Type Culture Collection (ATCC), was used as an experimental model to predict the characteristics of intestinal absorption following oral administration. This cell line was cultured in Dulbecco's Modified Eagle Medium/Nutrient F-12 Ham (DMEM-F12, Merck Life Science, Rome, Italy) containing 10% FBS (Merck Life Science, Rome, Italy), 2 mM of L-glutamine and 1% penicillin-streptomycin (Merck Life Science, Rome, Italy) and kept in an incubator at 37 °C and 5% CO2. The experiments were conducted using cells with a passage number comprised between 26 and 32 to maintain the correct properties of permeability and paracellular transport. The cells were seeded in various ways, including 1 × 10^4 cells in 96-well plates, in order to study cell viability and ROS production, synchronising the cells for 8 hours with DMEM without phenol red and supplemented with 0.5% FBS, 2 mM L-glutamine and 1% penicillin-streptomycin at 37 °C; 2 × 10^4 cells in Transwell® 6.5 mm plates (Corning® Costar®, Merck Life Science, Rome, Italy) with a polycarbonate membrane insert with 0.4 µm pores (Corning® Costar®, Merck Life Science, Rome, Italy) in a 24-well plate in order to perform the absorption analyses.
# The analysis of cell viability was carried out with a classic technique based on the MTT in vitro toxicology assay kit (Merck Life Science, Rome, Italy), following the manufacturer's instructions. In fact, at the end of the treatment, the cells were incubated with 1% MTT dye for 2 hours in an incubator at 37 °C, 5% CO2 and 95% humidity; the purple formazan crystals were then dissolved in an equal volume of MTT solubilisation solution. Absorbance was analysed with a spectrophotometer (Infinite 200 Pro MPlex, Tecan, Männedorf, Switzerland) at 570 nm with correction at 690 nm, and the results were expressed versus the control ([…]), which represented the untreated cells. The results represent the percentage of viable cells versus the control, which makes it possible to understand whether the stimulation is safe or not.
# With the aim of evaluating what the best concentration of each selected substance might be, and to prevent any cytotoxic effect, the viability of the CaCo-2 cells was analysed by means of the MTT assay.
# • L. crispatus (10 mg/ml; 20 mg/ml; 30 mg/ml; 40 mg/ml; 50 mg/ml) • NAC (0.3 mM; 0.6 mM; 1 mM) • lycopene (0.1 µM; 0.2 µM; 0.5 µM) • vitamin D3 (10 nM; 100 nM) • folic acid (10 µM; 50 µM; 125 µM; 500 µM)
# Therefore, these were maintained for all the subsequent experiments.
row,Compound,most effective concentration (cell viability) [µM]
1,"Nc1nc(=O)c2nc(CNc3ccc(C(=O)N[C@@H](CCC(=O)O)C(=O)O)cc3)cnc2[nH]1 [Folic acid, (S)-2-(4-((2-amino-4-hydroxypteridin-6-yl)-methylamino)benzamide)pentanedioic acid]",50
2,"CC(C)=CCC/C(C)=C/C=C/C(C)=C/C=C/C(C)=C/C=C/C=C(C)/C=C/C=C(C)/C=C/C=C(\C)CCC=C(C)C [Lycopene, (6E,8E,10E,12E,14E,16E,18E,20E,22E,24E,26E)-2,6,10,14,19,23,27,31-Octamethyl-dotriaconta-2,6,8,10,12,14,16,18,20,22,24,26,30-tridecane]",0.2
3,"CC(=O)N[C@@H](CS)C(=O)O [NAC, N-acetyl-L-cysteine]",600
4,"C=C1CC[C@H](O)C/C1=C/C=C1\CCC[C@]2(C)[C@@H]([C@H](C)CCCC(C)C)CC[C@@H]12 [Vitamin D, cholecalciferol]",0.01
